Columns and labels:
Assay type in all cases: toxicity, cell-based
HEK-293T = assay: Incucyte cell viability with HEK293T; settings: human, 10 µM, compound concentration 10 uM
U2OS = assay: Incucyte cell viability with U2OS; settings: human, 10 µM, compound concentration 10 uM
Fibroblast = assay: Incucyte cell viability with human fibroblast; settings: 10 µM, compound concentration 10 uM
Further: unitless GR value; below 1 slowed growth and below 0 cell loss.

SMILES | Growth Rate (HEK-293T; 6 h, replicate number 1) | Growth Rate (HEK-293T; 12 h, replicate number 1) | Growth Rate (HEK-293T; 18 h, replicate number 1) | Growth Rate (U2OS; 0 h, replicate number 1) | Growth Rate (U2OS; 12 h, replicate number 2) | Growth Rate (U2OS; 18 h, replicate number 2) | Growth Rate (U2OS; 24 h, replicate number 1) | Growth Rate (U2OS; 24 h, replicate number 2) | Growth Rate (Fibroblast; 6 h, replicate number 1) | Growth Rate (Fibroblast; 6 h, replicate number 2) | Growth Rate (Fibroblast; 12 h, replicate number 2) | Growth Rate (Fibroblast; 18 h, replicate number 1) | Growth Rate (Fibroblast; 18 h, replicate number 2) | Growth Rate (Fibroblast; 24 h, replicate number 2) | Growth Rate (HEK-293T; 6 h, replicate number 2) | Growth Rate (HEK-293T; 12 h, replicate number 2) | Growth Rate (HEK-293T; 18 h, replicate number 2) | Growth Rate (HEK-293T; 24 h, replicate number 2) | Growth Rate (Fibroblast; 0 h, replicate number 1) | Growth Rate (U2OS; 6 h, replicate number 1) | also measured
CN(C)[C@H]1CC[C@H](Nc2ncc3ncnc(Nc4ccc(F)c(Cl)c4)c3n2)CC1 | -0.21 | -0.11 | 0.12 | -1 | 0.5 | 0.48 | 0.45 | 0.47 | 0.74 | 0.19 | -0.1 | 0.14 | -0.19 | -0.13 |  |  |  |  |  |  | Growth Rate (HEK-293T; 0 h, replicate number 2): -1; Growth Rate (HEK-293T; 24 h, replicate number 1): 0.23; Growth Rate (U2OS; 0 h, replicate number 2): 0.58; Growth Rate (U2OS; 6 h, replicate number 2): 0.45; Growth Rate (U2OS; 12 h, replicate number 1): 0.48; Growth Rate (U2OS; 18 h, replicate number 1): 0.38; Growth Rate (Fibroblast; 0 h, replicate number 2): -1; Growth Rate (Fibroblast; 12 h, replicate number 1): 0.23; Growth Rate (Fibroblast; 24 h, replicate number 1): 0.14
CN[C@@H](C)C(=O)N[C@H]1CCCC[C@H]2CC[C@@H](C(=O)N[C@@H](c3ccccc3)c3cn(CCCCc4ccc(CCCCn5cc([C@@H](NC(=O)[C@@H]6CC[C@@H]7CCCC[C@H](NC(=O)[C@H](C)NC)C(=O)N76)c6ccccc6)nn5)cc4)nn3)N2C1=O |  | 0.83 | 0.72 | -0.95 |  |  |  |  |  | 0.06 | 0.88 | 0.61 | 0.55 | 0.66 | 0.99 | 0.77 | 0.74 | 0.84 | 0.3 |  | Growth Rate (HEK-293T; 0 h, replicate number 1): 0.64; Growth Rate (HEK-293T; 0 h, replicate number 2): 0.24; Growth Rate (HEK-293T; 24 h, replicate number 1): 0.65; Growth Rate (U2OS; 0 h, replicate number 2): -0.89
CN1CCN(C(=O)Cc2ccc(N/C(=C3\C(=O)Nc4cc(Cl)ccc43)c3ccccc3)cc2)CC1 | 0.26 | 0.71 | 0.84 |  | 0.86 | 0.7 |  | 0.58 | 0.12 | -0.1 | 0.01 | 0.44 | 0.21 | 0.28 | 0.83 | 0.92 | 0.82 | 0.73 |  |  | Growth Rate (HEK-293T; 24 h, replicate number 1): 0.8; Growth Rate (U2OS; 6 h, replicate number 2): 0.9; Growth Rate (Fibroblast; 0 h, replicate number 2): 0.06; Growth Rate (Fibroblast; 12 h, replicate number 1): 0.24; Growth Rate (Fibroblast; 24 h, replicate number 1): 0.48
C=C(C)[C@H]1CN[C@H](C(=O)O)[C@H]1CC(=O)O [KAINIC ACID] | 0.6 | 0.52 | 0.62 |  |  | 0.9 | 0.98 |  | 0.61 | 0.16 | 0.83 | 0.63 | 0.79 | 0.8 |  |  | 0.99 |  | -0.12 | 0.42 | Growth Rate (HEK-293T; 24 h, replicate number 1): 0.8; Growth Rate (U2OS; 0 h, replicate number 2): -0.65; Growth Rate (Fibroblast; 0 h, replicate number 2): 0.92; Growth Rate (Fibroblast; 24 h, replicate number 1): 0.76
CS(=O)(=O)CCNCc1ccc(-c2ccc3ncnc(Nc4ccc(OCc5cccc(F)c5)c(Cl)c4)c3c2)o1 [LAPATINIB] |  |  |  | 0.96 | 0.92 | 0.99 | 0.9 | 0.98 | -0.42 | 0.69 | 0.65 |  | 0.7 |  | 0.95 | 0.94 | 0.95 | 0.87 | 0.88 | 0.66 | Growth Rate (HEK-293T; 0 h, replicate number 1): 0.86; Growth Rate (U2OS; 6 h, replicate number 2): 0.93; Growth Rate (U2OS; 12 h, replicate number 1): 0.78; Growth Rate (U2OS; 18 h, replicate number 1): 0.86
CCc1cc2c(cc1N1CCC(N3CCOCC3)CC1)C(C)(C)c1[nH]c3cc(C#N)ccc3c1C2=O [ALECTINIB] | 0.56 | 0.83 | 0.95 |  | 0.78 | 1 | 0.91 | 0.94 |  | 0.58 |  |  |  | 0.89 | 0.59 | 0.86 |  |  |  | 0.77 | Growth Rate (U2OS; 6 h, replicate number 2): 0.78
CCN(C)C(=O)c1ccc2c(c1)NC(=O)/C2=C(\NC1CCN(C)CC1)c1ccccc1 | 0.43 | 0.82 |  | 0.88 |  |  | 0.92 |  |  | 0.61 |  |  |  | 0.93 |  |  | 0.82 | 0.89 |  | 0.68 | Growth Rate (U2OS; 0 h, replicate number 2): 0.18; Growth Rate (U2OS; 12 h, replicate number 1): 0.93; Growth Rate (Fibroblast; 0 h, replicate number 2): -0.73
O=C1c2c(Br)c(Br)c(Br)c(Br)c2C(=O)N1c1ncc[nH]1 |  |  |  | 0.58 | 0.88 | 0.8 |  | 0.85 |  | -0.34 | 0.46 | 0.49 | 1 |  | 0.37 | 0.57 | 0.74 | 0.78 | 0.94 | 0.7 | Growth Rate (HEK-293T; 0 h, replicate number 1): 0.6; Growth Rate (HEK-293T; 0 h, replicate number 2): 0.63; Growth Rate (U2OS; 6 h, replicate number 2): 0.25; Growth Rate (Fibroblast; 12 h, replicate number 1): -0.93
COc1cc(Cl)c(C(=O)N[C@@H](CN[C@H]2CC[C@@H](N)CC2)Cc2ccc(C#N)cc2)cc1-c1ccc(CN[C@H](C)c2ccc(C)cc2)o1 | -0.6 | -0.61 | -0.48 | -1 | -0.86 | -0.78 | -0.74 | -0.76 | -0.93 | -0.83 | -0.82 | -0.76 | -0.74 | -0.68 | -0.61 | -0.53 |  | -0.4 |  | -0.95 | Growth Rate (HEK-293T; 0 h, replicate number 2): -1; Growth Rate (HEK-293T; 24 h, replicate number 1): -0.42; Growth Rate (U2OS; 0 h, replicate number 2): -0.99; Growth Rate (U2OS; 6 h, replicate number 2): -0.91; Growth Rate (U2OS; 12 h, replicate number 1): -0.87; Growth Rate (U2OS; 18 h, replicate number 1): -0.77; Growth Rate (Fibroblast; 12 h, replicate number 1): -0.8; Growth Rate (Fibroblast; 24 h, replicate number 1): -0.72
Cc1c(-c2c(F)cc(C(N)=O)c3[nH]c4c(c23)CC[C@H](C(C)(C)O)C4)cccc1-n1c(=O)c2cccc(F)c2n(C)c1=O [BMS-986142] | -0.93 | -0.7 | -0.43 | 0.59 | 0.67 | 0.66 | 0.49 | 0.73 | -0.27 | -0.9 | 0.19 | 0.54 | 0.73 | 1 | -0.99 | -0.83 | -0.59 | -0.39 | -1 | 0.26 | Growth Rate (HEK-293T; 24 h, replicate number 1): -0.25; Growth Rate (U2OS; 0 h, replicate number 2): 0.95; Growth Rate (U2OS; 6 h, replicate number 2): 0.48; Growth Rate (U2OS; 12 h, replicate number 1): 0.52; Growth Rate (U2OS; 18 h, replicate number 1): 0.59; Growth Rate (Fibroblast; 12 h, replicate number 1): 0.08; Growth Rate (Fibroblast; 24 h, replicate number 1): 0.8
CC(C)S(=O)(=O)c1ccccc1Nc1nc(N[C@@H]2CCCN(CCCCCCCNC(=O)COc3cccc4c3C(=O)N(C3CCC(=O)NC3=O)C4=O)C2)ncc1Cl (stereo partly drawn) | -0.44 | -0.41 | -0.31 | -1 | 0.57 | 0.15 | -0.23 | 0.04 | -0.22 | 0.14 | -0.49 | -0.33 | -0.45 | -0.45 | -0.73 | -0.59 | -0.49 | -0.38 | -1 | 0.86 | Growth Rate (HEK-293T; 0 h, replicate number 1): -1; Growth Rate (HEK-293T; 24 h, replicate number 1): -0.24; Growth Rate (U2OS; 12 h, replicate number 1): 0.25; Growth Rate (U2OS; 18 h, replicate number 1): 0.03; Growth Rate (Fibroblast; 12 h, replicate number 1): -0.39; Growth Rate (Fibroblast; 24 h, replicate number 1): -0.23
CN1C(=O)c2c(nn(Cc3ccc(-c4cccc(F)n4)cc3)c2Nc2ccccc2)N2C1=N[C@@H]1CCC[C@@H]12.O=P(O)(O)O [LENRISPODUN PHOSPHATE] |  |  |  | 0.51 |  |  | 0.68 |  |  |  | 0.65 |  | 0.94 |  |  | 0.71 | 0.79 | 0.83 | -1 | 0.84 | Growth Rate (HEK-293T; 0 h, replicate number 1): 0.85; Growth Rate (HEK-293T; 0 h, replicate number 2): 0.18; Growth Rate (U2OS; 12 h, replicate number 1): 0.5; Growth Rate (U2OS; 18 h, replicate number 1): 0.67
CN(C1CCc2c(c3ccccc3n2CC(=O)O)C1)S(=O)(=O)c1ccc(F)cc1 (stereo not drawn) |  |  |  | 0.71 | 0.9 | 0.93 | 0.87 | 0.92 | 0.47 | 0.23 |  | 0.85 | 0.96 |  |  |  |  |  | -0.98 | 0.61 | Growth Rate (HEK-293T; 0 h, replicate number 1): 0.38; Growth Rate (U2OS; 0 h, replicate number 2): 0.7; Growth Rate (Fibroblast; 0 h, replicate number 2): 0.14; Growth Rate (Fibroblast; 24 h, replicate number 1): 0.96

Source: ChEMBL document CHEMBL5303304, “EUbOPEN Chemogenomics Library - IncuCyte” (2023)
